# Values quoted from earlier work, collected in patent US6340484B1, “Compositions containing neem seed extracts and saccharide” (E.I.D. Parry (India) Limited, priority 2000, dated 2002).
# Where two headings read alike, the source gives them in different places.
# Conditions: 25 days at 29+/−1° C.
structure (smiles),measurement,setting,value
C/C=C(\C)C(=O)O[C@H]1C[C@@H](OC(C)=O)[C@@]2(C(=O)OC)CO[C@H]3[C@@H](O)[C@@](C)([C@]45O[C@@]4(C)[C@@H]4C[C@H]5O[C@@H]5OC=C[C@@]54O)[C@H]4[C@]1(CO[C@]4(O)C(=O)OC)[C@@H]32 [azadirachtin A],degradation of azadirachtin A,in acetone,50%
same,degradation of azadirachtin A,in carbon tetrachloride,75-80%
same,degradation of azadirachtin A,in chloroform,75-80%
same,degradation of azadirachtin A,in ethanol,about 85%
same,degradation of azadirachtin A,in methanol,50%
same,degradation of azadirachtin A,in methylene chloride,75-80%
same,degradation of azadirachtin A,in water,about 85%
